Laboratory results as given in PMC10232370 (2023).
Read-outs that look alike come from different tables or passages of the source. One block for each compound: values may come before it.

Assays:
[1] = test system: Cy5-5'GAU/3'C_A mimic (minimized pre-miR-155 A bulge) (RNA, mismatch bulge abasic) GUAAUGAUUACGAAAGUAACAUUGC; assay: microscale thermophoresis
[2] = test system: Cy5-2DCS model fully base paired (RNA, hairpin) GGGUUUAAUUAGAUACGAAAGUAUCUAAUUGGAUCC; assay: microscale thermophoresis; settings: no saturable binding
[3] = test system: Cy5-5'GAU/3'CUA mimic (A bulge to AU pair) (RNA, hairpin) GUAAUGAUUACGAAAGUAAUCAUUGC; assay: microscale thermophoresis; settings: no saturable binding
[4] = test system: pre-miR-155 A bulge with 2-aminopurine (2AP) (RNA, mismatch bulge abasic, 2-aminopurine in place of the bulged A) GUAAUGAUUACGAAAGUAACAUUGC; assay: 2-aminopurine fluorescence titration
[5] = test system: Cy5-2DCS model with two A bulges (RNA, mismatch bulge abasic) GGGUUUAAUAGAUACGAAAGUACUAAUUGGAUCC; assay: microscale thermophoresis
[6] = test system: JUN IRES A bulge model with 2AP (5'UAU/3'A_A) (RNA, mRNA element, 2-aminopurine in place of the bulged A) GCAGUAUAGGAAACUAACUGC; assay: 2-aminopurine fluorescence titration
[7] = test system: Cy5-labelled JUN IRES model (RNA, mRNA element) GCAGUAUAGGAAACUAACUGC; assay: Cy5 fluorescence titration
[8] = test system: JUN IRES fully paired control (A bulge to AU pair), Cy5 (RNA, mRNA element) GCAGUAUAGGAAACUAUACUGC; assay: Cy5 fluorescence titration; settings: no saturable binding
[9] = test system: MYC IRES fully paired control RNA (RNA, mRNA element) GGGGGCUUCGCCUCUGGCGAAGCCCUC; assay: Cy5 fluorescence titration
[10] = test system: Cy5-labelled MYC IRES 5'UUCG/3'ACCC 2x2 internal loop model (RNA, mRNA element) GGGGGCUUCGCCUCUGGCCCAGCCCUC; assay: Cy5 fluorescence titration
[11] = test system: pre-miR-155 (wild type) (RNA, miRNA) GGCUGUUAAUGCUAAUCGUGAUAGGGGUUUUUGCCUCCAACUGACUCCUACAUAUUAGCAUUAACAG; assay: competition with 2AP-labelled RNA; settings: RIBOTAC 5 µM, 2AP-labelled A bulge RNA 1 µM; unlabelled pre-miR-155 as competitor
[12] = test system: pre-miR-155 +U49 mutant (A bulge to AU pair) (RNA, miRNA) GGCUGUUAAUGCUAAUCGUGAUAGGGGUUUUUGCCUCCAACUGACUCCUAUCAUAUUAGCAUUAACAG; assay: competition with 2AP-labelled RNA; settings: RIBOTAC 5 µM, 2AP-labelled A bulge RNA 1 µM; mutant does not compete
[13] = test system: JUN IRES 2AP control RNA (bulge converted to base pair) (RNA, mRNA element, 2-aminopurine (position not given)) GCAGUAUAGGAAACUAUACUGC; assay: 2-aminopurine fluorescence titration

Structure (SMILES): CCCCCCCCCCCc1c(CCCCCCCCCCC)[n+](-c2c(C(C)C)cccc2C(C)C)cn1-c1c(C(C)C)cccc1C(C)C
Kd [1]: 800 ± 100 nM
binding [2]: no
binding [3]: no
Kd,app ([4]; apparent, error printed as 1.2): 3900 ± 1000 nM
Kd [5]: 1200 ± 100 nM

Structure (SMILES): CCCNC(=O)CCc1c(C)n(-c2c(C(C)C)cccc2C(C)C)c[n+]1-c1c(C(C)C)cccc1C(C)C
Kd ([1]; similar affinity to C1): 1100 ± 100 nM
binding ([4]; similar affinity to C1): yes

Structure (SMILES): CCOC(=O)C1=C(Nc2ccccc2)S/C(=C\c2ccc(O)c(OCCOCCOCCOCCNC(=O)CCNc3nc(Nc4ccc(C5=NCCN5)cc4)nc(Nc4ccc(C5=NCCN5)cc4)n3)c2)C1=O
EC50 [6]: 3500 ± 900 nM
Kd [7]: 400 ± 100 nM
binding [8]: no

Structure (SMILES): CCOC(=O)C1=C(Nc2ccccc2)S/C(=C\c2ccc(OCCOCCOCCOCCNC(=O)CCNc3nc(Nc4ccc(C5=NCCN5)cc4)nc(Nc4ccc(C5=NCCN5)cc4)n3)c(O)c2)C1=O
EC50 [6]: 1800 ± 500 nM
Kd [7]: 500 ± 200 nM
binding [8]: no

Structure (SMILES): CCOC(=O)C1=C(Nc2ccccc2)S/C(=C\c2ccc(OCCOCCOCCOCCNC(=O)CCc3c(C)n(-c4c(C(C)C)cccc4C(C)C)c[n+]3-c3c(C(C)C)cccc3C(C)C)c(O)c2)C1=O
Kd [11]: 2200 ± 900 nM
binding [12]: no

Second part, the compound after the results:

binding ([9]; no saturable binding): no
Kd [10]: 900 ± 200 nM
Structure (SMILES): CCOC(=O)C1=C(Nc2ccccc2)S/C(=C\c2ccc(O)c(OCCOCCOCCOCCNC(=O)c3cc(NC(=O)Nc4ccc(C5=NCCN5)cc4)cc(NC(=O)Nc4ccc(C5=NCCN5)cc4)c3)c2)C1=O

binding ([9]; no saturable binding): no
Kd [10]: 1100 ± 100 nM
Structure (SMILES): CCOC(=O)C1=C(Nc2ccccc2)S/C(=C\c2ccc(OCCOCCOCCOCCNC(=O)c3cc(NC(=O)Nc4ccc(C5=NCCN5)cc4)cc(NC(=O)Nc4ccc(C5=NCCN5)cc4)c3)c(O)c2)C1=O

EC50 [6]: 1100 ± 200 nM
EC50 [13]: > 50000 nM
Kd [7]: 3200 ± 2000 nM
Structure (SMILES): CNc1nc(Nc2ccc(C3=NCCN3)cc2)nc(Nc2ccc(C3=NCCN3)cc2)n1

binding [9]: no
Kd [10]: 2300 ± 1000 nM
Structure (SMILES): O=C(Nc1ccc(C2=NCCN2)cc1)Nc1cc(NC(=O)Nc2ccc(C3=NCCN3)cc2)cc(C(=O)O)c1
